Legend:
Assay type in all cases: cell-based, lamb
[1] = system: pulmonary artery smooth muscle cells (PASMC); assay: PASMC phenotype markers MYH, Calponin-1, Vimentin (Western blot); details: WT-PKG-1α transfected PASMC; SIN-1 500 μM, 48 h
Protocol: (§1) To assess the effect of nitration on pulmonary arterial smooth muscle cell (PASMC) phenotype, PASMC were transiently transfected with expression plasmids containing WT-PKG-1α, Y247F-PKG-1α, or PDEST40 (as a control) for 20 h. Cells were then exposed or not to SIN-1 (500 μM, 48 h) and the effect on synthetic and contractile markers determined. The levels of myosin heavy chain (MYH, FIG. 3A), Calponin-1 (FIG. 3B), and Vimentin (FIG. 3C) were determined. The blots were then stripped and re-probed for β-actin to normalize for protein loading. PASMC were also subjected to immunohistochemistry using antibodies to SM22-α (5 μg/ml) and PCNA (1 μg/ml). Relevant secondary antibodies linked to Alexa Fluor 488 (green) were then applied. DAPI was also used to stain (blue) the cell nuclei.

[2] = system: pulmonary artery smooth muscle cells (PASMC); assay: PASMC cellular metabolism (alamarBlue assay); details: WT-PKG-1α transfected PASMC; SIN-1 500 μM, 48 h
Protocol: This was determined via the alamarBlue assay (AbD Serotec, Oxford, UK). The assay is based on the reducing ability of metabolically active cells to convert the active reagent, resazurin, into a fluorescent and colorimetric indicator, resorufin. When added to cell cultures, the oxidized, resazurin enters the cytosol and is converted to the reduced, resorufin in the mitochondria by accepting electrons from NADH, NADPH, FADH2, FMNH2, as well as from the cytochromes. The non-toxic and cell permeable nature of alamarBlue permits the long-term exposure of cells. PASMC were grown on a 10 cm dish to 75% confluence, transfected with WT-PKG-1α or Y247F-PKG-1α cDNA, and incubated at 37° C. for 20 h. The cells were trypsinized and seeded onto a 24-well plate at a density of 20,000 cells per well and grown for an additional 4 h in serum and phenol free DMEM growth medium containing 1% FBS and antibiotics. The cells were then treated with or without SIN-1 (500 μM, 48 h) in the presence of 10% well volume of alamarBlue dye. The color change of the dye was determined at an excitation wavelength of 560 nm and an emission wavelength of 590 nm in a Fluoroskan Ascent plate reader. […] Cellular metabolism was expressed as follows: […]

[3] = system: pulmonary artery smooth muscle cells (PASMC); assay: PASMC immunocytochemistry for SM22-α and PCNA; details: SIN-1 500 μM, 48 h
Protocol: Semi-confluent PASMC grown on a coverslip in a 6-well plate were transfected with a mammalian expression plasmid containing either a wild-type (WT)- or Y247F-PKG-1α cDNA. After 20 h, the cells were serum starved (1% FBS) for 4 h then exposed or not to SIN-1 (500 μM) for 48 h. The cells were washed with PBS, methanol fixed (5 min), and permeabilized in 0.1% PBS-Tween (20 min). The cells were then washed 3× with PBS and blocked for non-specific protein-protein interactions with 1% BSA in PBS (1 h). The antibodies, smooth muscle (SM) 22-α (5 μg/ml) or proliferating cell nuclear antigen (PCNA) (1 μg/ml) diluted in 1% BSA in PBS, were added and incubated overnight at 4° C. The cells were again washed 3× with PBS and incubated in secondary antibody (green): Alexa Fluor 488 goat anti-mouse IgG (H+L) (1/1000 dilution) for PCNA or Alexa Fluor 488 donkey anti-goat IgG (H+L) (1/1000 dilution) for SM22-α for 1 h in the dark. DAPI was used to stain the cell nuclei (blue) at a concentration of 0.5 μg/ml for 3 min. The cells were rinsed 3× with PBS, and the coverslips were mounted on the slides with ProLong Gold Antifade and analyzed with the use of a Nikon Eclipse TE 300 inverted fluorescent microscope with a 60× oil objective and a Hamamatsu digital camera.
as §1

[4] = system: 3-NT-Y247-PKG-1α; assay: 3-NT-Y247-PKG-1α immunoblot in transfected PASMC; details: SIN-1 500 μM, 30 min

3-morpholinosydnonimine N-ethylcarbamide [SIN-1]
expression of contractile marker Calponin-1 [1]: decreased | expression of contractile marker MYH [1]: decreased | expression of proliferative marker Vimentin [1]: increased | metabolism [2]: stimulated | PCNA staining ([3]; WT-PKG-1α expressing PASMC): increased | SM-22α expression ([3]; WT-PKG-1α expressing PASMC): attenuated | filamentous SM22-α expression and nuclear staining of PCNA ([3]; Y247F-PKG-1α expressing PASMC): unaffected | PKG-1α nitration (3-NT-Y247-PKG-1α levels) ([4]; PASMC transfected with WT-PKG-1α): significantly increased | nitration levels of 3-NT-Y247-PKG-1α ([4]; PASMC, second construct of FIG. 4A): no significant increases
